# Experimental data from patent US20250017206A1, “METHODS FOR PREVENTING OR REDUCING BACTERIAL INFECTION OF PLANT SEEDS” (priority 2022, published 2025).
# “Also recorded” adds a separate entry of the source.
# How the values were obtained:
# Acidovorax citrulli = assay: A. citrulli growth on LB agar growth medium containing tea, extracts or compounds; assay type: cell-based; settings: for inhibition of A. citrulli (summary): compound alone in culture
# Protocol: A. citrulli growth on LB agar medium was assessed after treatment with commercial brands of black and green teas and their constituent compounds to determine inhibitory effects. Dried loose tea leaves were boiled in distilled water, strained, and liquid added to LB agar growth medium to assess concentration effects. Five grams of loose-leaf tea was autoclaved in 200 mL distilled water for 25 minutes in the liquid cycle. After autoclaving, the tea was cooled to room temperature and filtered using Whatman #1 filter paper. The filtered tea was adjusted by spectrophotometry (DU 800, Beckman Coulter) to 4.0, 3.0, 2.0, 1.0, and 0.5 at OD390.
# Luria Broth (LB) agar growth medium was prepared by mixing 10 grams of tryptone, 5 grams of yeast extract, and 10 grams of sodium chloride, and 15 grams of Bacto™ Agar Solidifying Agent (BD Diagnostics) in 1 liter of distilled water (pH: 7.5) before autoclaving. Collected bacteria were resuspended in autoclave-sterilized 10 mM MgCl2, and adjusted to 1.0, 0.5, 0.1, 0.01, and 0.001 OD600 spectrophotometry.
# 1 mL of each standard compound was added to 10 mL of LB agar growth medium.
# Growth curve on growth medium containing inhibitory extracts and compounds to test whether Acidovorax citrulli could grow in the presence of green and black teas and some of their constituents, growth analysis was conducted in Petri dishes on solid LB agar containing tea or its extracts to quantitate bacterial growth inhibition. We also wanted to see whether tea and its constituents affected antibiotic resistance by comparing growth on both LB agar and Rifampicin containing LB agar. […] For the second stage, effects were verified by blotting 20 μL of inoculum with 9 1:10 serial dilutions to be able to count bacterial colonies. After growth medium solidified, 5 μL of bacterial inoculum adjusted at OD600: to 1.0, 0.5, 0.1, 0.01, or 0.001 (at first stage) and 20 μL of bacterial inoculum adjusted to OD600: 10^0, 10^−1, 10^−2, 10^−3, 10^−4, 10^−5, 10^−6, 10^−7, 10^−8, 10^−9 were blotted on the LB agar growth medium, containing tea samples or other extracts (1:10 mL). The Petri dishes inoculated with bacteria were incubated at 28° C. for 72 h in dark. Autoclaved distilled water was added to growth medium in a separate replicate with 5 μL of 10 mM MgCl2 and bacteria as a negative control. In order to check if additional distilled water affected bacterial growth, growth on LB medium with and without water was compared. Results were compared by colonies. When colonies could not be separated, bacterial growth was scored between 1 and 0 depending on the amount of growth on the surface of the blot.
# [1] = test system: A. citrulli strain AAC00-1; settings: components of cinnamon oil; Choi et al. (2016); cited from earlier work
molecule,measurement,setting,value
"O=C(O[C@@H]1Cc2c(O)cc(O)cc2O[C@@H]1c1ccc(O)c(O)c1)c1cc(O)c(O)c(O)c1 [ECG, epicatechin gallate, reference compound]",bacterial growth at 0.5 mM,"Acidovorax citrulli; 0.5 mM, AA000-1, maximum bacterial concentration OD600 0.01",inhibited bacterial growth
same,bacterial growth at 1.5 mM,"Acidovorax citrulli; AAC00-1, 1.5 mM, bacterial OD600 1.0",completely inhibitory; also recorded: inhibited all bacterial growth
O=Cc1ccccc1 [benzaldehyde],antibacterial activities against strain AAC00-1,[1],exhibited antibacterial activities
O=CC=Cc1ccccc1 [cinnamaldehyde],antibacterial activities against strain AAC00-1,[1],exhibited antibacterial activities
"Cn1c(=O)c2c(ncn2C)n(C)c1=O [caffeine, reference compound]",inhibition of A. citrulli (summary),Acidovorax citrulli,not inhibitory
"Oc1cc(O)c2c(c1)O[C@H](c1cc(O)c(O)c(O)c1)[C@H](O)C2 [EGC, epigallocatechin, reference compound]",bacterial growth at 1 mM EGC,"Acidovorax citrulli; 1 mM, bacteria OD600 0.1 and 0.01",efficient inhibitor; also recorded: inhibited bacterial growth on 0.1 dilution of bacteria
same,bacterial growth at 0.5-1-1.5 mM EGC,"Acidovorax citrulli; AAC00-1 OD600 1.0-0.001, 0.5-1-1.5 mM",did not show inhibitory effects; also recorded: showed no inhibition
same,minimum concentration required for inhibition,"Acidovorax citrulli; bacterial concentration OD600 0.001, AAC00-1",0.5 mM
catechin,bacterial colony growth at 10 mM catechin,"Acidovorax citrulli; AAC00-1, 0.1, 1, 10 mM compared, only 10 mM inhibitory, with or without rifampicin",inhibitory; also recorded: inhibited bacterial growth
same,effect of antibiotic presence on bacterial colony growth inhibition by catechin,"Acidovorax citrulli; AAC00-1, catechin 0.1, 1, 10 mM, with or without rifampicin 100 μg/mL",No difference
same,bacterial growth at 5-10-15 mM,"Acidovorax citrulli; AAC00-1 OD600 1.0-0.001, 5-10-15 mM",inhibited all bacterial growth
same,inhibition of A. citrulli (summary),Acidovorax citrulli,strongly inhibitory
same,bacterial colony growth at 1 mM,"Acidovorax citrulli; final concentration 1 mM in LB agar with rifampicin 100 μg/mL, M6, AAC00-1, aacI, aacR, OD600 1.0-0.001",inhibited A. citrulli; also recorded: inhibited some lower density colonies of bacteria
same,bacterial colony growth at 10 mM,"Acidovorax citrulli; final concentration 10 mM in LB agar with rifampicin 100 μg/mL, M6, AAC00-1, aacI, aacR, OD600 1.0-0.001",inhibited A. citrulli; also recorded: completely inhibited bacterial growth; also recorded: inhibited growth of all bacterial strains
same,less A. citrulli growth in catechin treatments compared to caffeine treatment,"Acidovorax citrulli; overall, 3-Way ANOVA, 95% significance level",~25%
same,inhibition of A. citrulli compared with black tea and caffeine,"Acidovorax citrulli; preliminary, data not shown",greater than black tea and caffeine
